Experimental findings from ChEMBL document CHEMBL4177628, “Discovery of a class of diheteroaromatic amines as orally bioavailable CDK1/4/6 inhibitors” (Bioorg Med Chem Lett, 2017) are described below.

Structures are written as SMILES.

What is called IC50 is the concentration needed to halve the response being measured. What is called Cmax is the peak of the concentration-time curve. Usually AUC stands for the area under the concentration-time curve, a measure of exposure. A higher AUC goes with more exposure. For orientation: clearance means a measure of how efficiently the substance is removed, as volume per time. Higher therefore signals efficient removal. As usually defined, the T/C is the result in the treated group divided by that in the control group, in per cent. The half-life is how long it takes for the measured level to halve. A high value points to slow loss. One may read the bioavailability as the share of a dose that reaches the circulation, judged against a reference dose that is usually intravenous.

The target in series [1] is Cyclin-dependent kinase 6 (Homo sapiens, UniProt Q00534). The series is described as follows: Inhibition of CDK6 (unknown origin) using U-light as substrate preincubated for 1 hr followed by EDTA addition measured after 1 hr by LANCE Ultra kinase assay. A general note: Time-resolved FRET reads energy transfer from a long-lived donor to a nearby acceptor.
Series [2] deals with Cyclin-dependent kinase 4 (Homo sapiens, UniProt P11802). In words: Inhibition of CDK4 (unknown origin) using U-light as substrate preincubated for 1 hr followed by EDTA addition measured after 1 hr by LANCE Ultra kinase assay.
Series [3] addresses Cyclin-dependent kinase 1 (Homo sapiens, UniProt P06493). In words: Inhibition of CDK1 (unknown origin) using U-light as substrate preincubated for 1 hr followed by EDTA addition measured after 1 hr by LANCE Ultra kinase assay.
Series [4] deals with COLO 205. The series is described as follows: Antiproliferative activity against human COLO205 cells after 96 hrs by CCK-8 assay. Format: functional, cell-based. The conditions noted are these: COLO 205, 96 h. A general note: Tetrazolium assays rely on reduction of a dye to a coloured formazan, in cell work by metabolically active cells.
Series [5] in a line: Cmax in ICR mouse at 1 mg/kg, iv. Format: ADME, organism-based. Further details: dose 1 mg/kg, route intravenous. Conditions: in vivo.
Series [6] is described as follows: AUC in ICR mouse at 1 mg/kg, iv. Format: ADME, organism-based. Conditions: in vivo.
A short description of series [7]: Clearance in ICR mouse at 1 mg/kg, iv. Format: ADME, organism-based. The conditions noted are these: in vivo.
Series [8] can be described thus: Volume of distribution at steady state in ICR mouse at 1 mg/kg, iv. Format: ADME, organism-based. Conditions: in vivo, read-out: Vdss.
In series [9] the test system is COLO 205. The series is described as follows: Antitumor activity against human COLO205 cells xenografted in nude BALB/c mouse assessed as tumor volume at 100 mg/kg, po administered once daily for 3 weeks measured twice per week relative to control. Format: functional.
A short description of series [10]: Half life in ICR mouse at 1 mg/kg, iv. Format: ADME, organism-based. The conditions noted are these: in vivo.
A short description of series [11]: Oral bioavailability in ICR mouse at 5 mg/kg. Format: ADME, organism-based. The conditions noted are these: in vivo.
Series [12] can be described thus: AUC in ICR mouse at 5 mg/kg, po. Format: ADME, organism-based. Conditions: in vivo.
Series [13] concerns COLO 205. The series is described as follows: Antitumor activity against human COLO205 cells xenografted in nude BALB/c mouse assessed as tumor volume at 25 mg/kg, po administered once daily for 3 weeks measured twice per week relative to control relative to control. Format: functional. For orientation: In xenograft studies the graft and the host belong to different species.

For series [14], the system named is COLO 205. In words: Antitumor activity against human COLO205 cells xenografted in nude BALB/c mouse assessed as tumor volume administered once daily for 3 weeks measured twice per week relative to control. Format: functional.
The test system of another series is Mus musculus. The series is described as follows: Toxicity in nude BALB/c mouse xenografted with human COLO205 cells assessed as change in body weight at 25 to 100 mg/kg, po administered once daily for 3 weeks. The conditions noted are these: in vivo, 504 h. Format: organism-based.

Chain of Cyclin-dependent kinase 1 (P06493 whole entry): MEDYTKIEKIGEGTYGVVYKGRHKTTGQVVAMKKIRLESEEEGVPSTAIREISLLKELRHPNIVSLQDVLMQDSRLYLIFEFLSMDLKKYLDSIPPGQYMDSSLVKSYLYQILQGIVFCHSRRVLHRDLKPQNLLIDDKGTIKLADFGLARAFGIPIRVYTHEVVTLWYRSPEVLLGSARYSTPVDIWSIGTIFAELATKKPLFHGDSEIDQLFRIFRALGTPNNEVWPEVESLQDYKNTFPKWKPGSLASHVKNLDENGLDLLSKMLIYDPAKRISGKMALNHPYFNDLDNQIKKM
Chain of Cyclin-dependent kinase 4 (P11802 whole entry): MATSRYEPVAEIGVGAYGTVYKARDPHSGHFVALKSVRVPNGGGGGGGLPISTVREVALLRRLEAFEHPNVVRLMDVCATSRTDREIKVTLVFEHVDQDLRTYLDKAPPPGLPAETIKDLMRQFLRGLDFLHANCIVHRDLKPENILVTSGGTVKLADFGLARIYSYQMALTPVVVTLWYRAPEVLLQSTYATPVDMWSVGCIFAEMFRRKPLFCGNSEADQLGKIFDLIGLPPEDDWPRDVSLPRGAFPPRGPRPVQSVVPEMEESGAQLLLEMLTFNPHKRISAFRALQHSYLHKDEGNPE
Chain of Cyclin-dependent kinase 6 (Q00534 whole entry): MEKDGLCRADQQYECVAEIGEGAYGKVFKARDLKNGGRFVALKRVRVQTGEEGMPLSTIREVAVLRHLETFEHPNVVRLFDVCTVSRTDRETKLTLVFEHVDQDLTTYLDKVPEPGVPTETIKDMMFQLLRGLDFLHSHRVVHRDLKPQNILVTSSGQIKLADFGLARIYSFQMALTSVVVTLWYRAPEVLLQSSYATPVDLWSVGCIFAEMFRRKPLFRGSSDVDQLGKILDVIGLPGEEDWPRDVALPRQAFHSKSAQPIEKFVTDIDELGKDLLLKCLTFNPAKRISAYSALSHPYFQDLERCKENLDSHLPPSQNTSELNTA

Turning to `CCN1CCC(Cc2cnc(Nc3cc(-c4cc(F)c5nc(C)n(C(C)C)c5c4)ncn3)cn2)CC1`, the IC50 in series [1] amounted to 2.9 nM; in [2], 2.4 nM; in series [3] it was 134 nM; in the series on COLO 205 [4], 320 nM.

For the molecule `CCN1CCN(Cc2cnc(Nc3cc(-c4cc(F)c5nc(C)n(C(C)C)c5c4)c(F)cn3)cn2)CC1`, the concentration for half-maximal inhibition (IC50) in series [1] is 1.6 nM; in series [2], 1.6 nM; in [3] it was 44 nM; in the series on COLO 205 [4] it was 40 nM. In series [5], this molecule showed a Cmax of 514 ng/mL. In series [6], this molecule displayed an exposure (AUC) of 425 ng·h/mL. Besides, in [7], the clearance was 37.6 mL/min/kg. Moreover, the Vd in series [8] was 6.44 L/kg.

As for `CCN1CCN(Cc2ccc(Nc3cc(-c4cc(F)c5nc(C)n(C(C)C)c5c4)ccn3)nc2)CC1`, the IC50 is 2.9 nM in [1], 2.9 nM in series [2], 301 nM in series [3] and 140 nM in the series on COLO 205 [4].

As to `CCN1CCN(Cc2cnc(Nc3cc(-c4cc(F)c5nc(C)n(C(C)C)c5c4)ncn3)nc2)CC1`, the IC50 in [2] came out at 35.9 nM; in series [3], 20200 nM; with COLO 205 [4], 3740 nM.

`CCN1CCN(Cc2ccc(Nc3cc(-c4cc(F)c5nc(C)n(C(C)C)c5c4)c(F)cn3)nn2)CC1`: the IC50 was 12.1 nM in series [2], 1670 nM in [3] and 630 nM in the series on COLO 205 [4].

In the series on COLO 205 [4], `CCN1CCN(Cc2ccc(Nc3ncc(F)c(-c4cc(F)c5nc(C)n(C(C)C)c5c4)n3)nc2)CC1` [ABEMACICLIB] yielded an IC50 of 460 nM. Besides, the T/C in the series with COLO 205 [9] was determined as 3.95%.

As to `COCCN1CCN(Cc2cnc(Nc3cc(-c4cc(F)c5nc(C)n(C(C)C)c5c4)ncn3)cn2)CC1`, the IC50 in series [1] stood at 1.6 nM; in [2], 3.7 nM; in [3], 140 nM; in the series on COLO 205 [4], 140 nM.

Consider `Cc1nc2c(F)cc(-c3cc(Nc4cnc(CN5CCN(C(C)C)CC5)cn4)ncn3)cc2n1C(C)C`, for which the IC50 in [1] was determined as 2.3 nM; in series [2], 1.6 nM; in series [3] it was 97.2 nM; in the series on COLO 205 [4] it was 140 nM.

`CCN1CCN(Cc2cnc(Nc3ncnc(-c4cc(F)c5nc(C)n(C(C)C)c5c4)c3F)cn2)CC1`: the IC50 came out at 283 nM in series [2] and 5600 nM in the series with COLO 205 [4].

For the molecule `CCN1CCN(Cc2ccc(Nc3cc(-c4cc(F)c5nc(C)n(C(C)C)c5c4)ncn3)nc2)CC1`, the IC50 in [1] turned out to be 4.4 nM; in series [2], 3.1 nM; in series [3] it was 412 nM; in the series on COLO 205 [4], 260 nM.

Regarding `Cc1nc2c(F)cc(-c3cc(Nc4cnc(CN5CCN(CC(F)(F)F)CC5)cn4)ncn3)cc2n1C(C)C`, the IC50 was found to be 5.8 nM in [1], 5.6 nM in [2], 150 nM in series [3] and 530 nM in the series on COLO 205 [4].

Take `CCN1CCN(Cc2ccc(Nc3cc(-c4cc(F)c5nc(C)n(C(C)C)c5c4)ncn3)nn2)CC1`: the IC50 in series [2] was 13.8 nM; in series [3] it was 2430 nM; with COLO 205 [4], 520 nM.

As for `CCN1CCN(Cc2cnc(Nc3cc(-c4cc(F)c5nc(C)n(C(C)C)c5c4)ncn3)cn2)CC1`, the IC50 worked out at 2.7 nM in series [1], 1.5 nM in series [2], 136 nM in series [3] and 210 nM in the series with COLO 205 [4]. The molecule further yielded a Cmax in series [5] of 998 ng/mL. Besides, the area under the curve (AUC) in [6] stood at 571 ng·h/mL; in series [12], 2550 ng·h/mL. Besides, the clearance in [7] was in the range of 20.8 to 28.8 mL/min/kg. Further, in [8], the Vd came out at 0.57 L/kg. Moreover, in [10], the half-life is 96 min. The bioavailability in series [11] stood at 89.3%. In addition, the T/C in the series with COLO 205 [9] is on record as 12.37%; in the series on COLO 205 [13], 54.21%. In addition, the Activity result in the series on COLO 205 [14] is “Dose-dependent effect”; in the series with Mus musculus it was “Non-Toxic”.

With `CCN1CCN(Cc2ccc(Nc3cc(-c4cc(F)c5nc(C)n(C(C)C)c5c4)ccn3)nn2)CC1`, the IC50 in series [1] was 23.6 nM; in series [2], 5.2 nM; in series [3], 801 nM; in the series on COLO 205 [4], 340 nM.

As for `Cc1nc2c(F)cc(-c3cc(Nc4cnc(CN5CCN(CC6CC6)CC5)cn4)ncn3)cc2n1C(C)C`, the IC50 in series [1] is 2.2 nM; in series [2], 2.9 nM; in series [3] it was 103 nM; in the series with COLO 205 [4], 110 nM.

Consider `CCN1CCN(Cc2ncc(Nc3cc(-c4cc(F)c5nc(C)n(C(C)C)c5c4)ncn3)cn2)CC1`, for which, in [2], the IC50 was determined as 5160 nM.

On to `CCN1CCN(Cc2cnc(Nc3cc(-c4cc(F)c5nc(C)n(C(C)C)c5c4)ccn3)cn2)CC1`, for which the half-maximal inhibitory concentration (IC50) in series [1] was 1.6 nM; in [2], 2.1 nM; in series [3], 35.8 nM; with COLO 205 [4], 50 nM.

As for `CCN1CCC(Oc2cnc(Nc3cc(-c4cc(F)c5nc(C)n(C(C)C)c5c4)ncn3)cn2)CC1`, the IC50 was 4 nM in [1], 8.8 nM in [2], 231 nM in [3] and 460 nM in the series on COLO 205 [4].

As to `CCN1CCC(C(C)c2cnc(Nc3cc(-c4cc(F)c5nc(C)n(C(C)C)c5c4)ncn3)cn2)CC1` (centres undefined), the results for the IC50 (in series [2]; in series [3]; in the series on COLO 205 [4]) were 18.3 nM, 1410 nM and 1510 nM, respectively.

For the molecule `Cc1nc2c(F)cc(-c3cc(Nc4cnc(CN5CCN(C6CCCC6)CC5)cn4)ncn3)cc2n1C(C)C`, the IC50 is 1.8 nM in series [1], 2.2 nM in [2], 101 nM in series [3] and 160 nM with COLO 205 [4].
